Patent US20060069132A1, “Azolecarboxamide herbicides” (priority 2004, published 2006)

Experiments:
[1] = test system: corn (maize) cv. Pioneer 33G26; test: Test G safening on corn by naphthalic anhydride seed treatment, preemergence; format: in vivo, Zea mays
From the text: This test evaluated the safening of compounds of the invention on corn (maize; Zea mays L.) cv. ‘Pioneer 33G26’ by seed treatment with naphthalic anhydride (1,8-naphthalic anhydride). All corn seed had been first treated with fludioxonil and metaxyl applied at the manufacturer's recommended rate as per the Pioneer 33G26 label. Some of the corn seed were subsequently also treated with naphthalic anhydride as a 1% by weight seed dressing. The corn seed were planted in pots containing pasteurized Sassafras sandy loam soil, and then treatments were applied preemergence the same day. Treatments were applied by spraying the test compounds formulated in a non-phytotoxic solvent mixture, using a flat fan nozzle and a spray volume of 280 L/ha. The treatments were triply replicated and the results subsequently averaged. The pots were placed on a greenhouse bench using a complete randomized block design except for the first replicate, which was unrandomized. The plants were grown in the greenhouse and watered as needed with a dilute nutrient solution containing 200 ppm of N. Illumination was daylight supplemented by artificial sources to maintaining a photoperiod of 16 hours. The temperature was maintained at 28±2° C. during the day and 23±2° C. at night. The plant response was visually rated 25 days after treatment in comparison to untreated controls using a scale of 0 to 100, with 0 representing no effect and 100 representing complete plant death.

wheat cv. Retical = test: Test H safening on wheat by naphthalic anhydride seed treatment, pre-/postemergence; format: in vivo, Triticum aestivum; design: key to Response of wheat, Without naphthalic anhydride seed treatment: 0 = no effect, 100 = complete plant death, vs untreated control; conditions: preemergence
Method: This test evaluated the safening of compounds of the invention on wheat (Triticum aestivumL.) cv. ‘Retical’ by seed treatment with naphthalic anhydride. Some of the wheat seed was treated with napthalic anhydride as a 1% by weight seed dressing. The wheat seed were planted in pots containing pasteurized Sassafras sandy loam soil. For postemergence testing the plants were grown 8 days to the 2-leaf stage at time of treatment. Preemergence treatments were applied the same day that the seeds were planted. Treatments were applied by spraying the test compounds formulated in a non-phytotoxic solvent mixture, using a flat fan nozzle and a spray volume of 280 L/ha. The preemergence treatments were triply replicated and the results subsequently averaged. The pots were placed on a growth chamber bench using a complete randomized block design for the preemergence test except for the first replicate, which was unrandomized. The plants were grown in the growth chamber and watered as needed with a dilute nutrient solution containing 200 ppm of N. Illumination was provided by fluorescent lamps giving 200-300 μE/m^2/S of photosynthetically active radiation over a 14-hour photoperiod. The temperature was maintained at 23±2° C. during the day and 17±2° C. at night. The effects of the treatments were rated 25 days after preemergence treatment and 14 days after postemergence treatment. The plant response was visually rated in comparison to untreated controls using a scale of 0 to 100, with 0 representing no effect and 100 representing complete plant death. The results for the compounds tested preemergence are listed in Table H1, and the results for the compounds tested postemergence are listed in Table H2.

late watergrass = test: Test D flooded paddy test; format: in vivo, Echinochloa oryzicola; conditions: 21 days, scale 0 to 100
From the text: (§1) Three plastic pots (ca. 16-cm diameter) per rate were partially filled with sterilized Tama silt loam soil comprising a 35:50:15 ratio of sand, silt and clay and 2.6% organic matter. Separate plantings for each of the three pots were as follows. Seeds from the U.S. of ducksalad (Heteranthera limosa (Sw.) Willd.), smallflower umbrella sedge (Cyperus difformis L.) and purple redstem (Ammannia coccinea Rottb.), were planted into one 16-cm pot for each rate. Seeds from the U.S. of rice flatsedge (Cyperus iria L.), bearded sprangletop (Leptochloa fascicularis (Lam.) Gray), one stand of 9 or 10 water seeded rice seedlings (Oryza sativa L. cv. ‘Japonica—M202’), and one stand of 6 transplanted rice seedlings (Oryza sativa L. cv. ‘Japonica—M202’) were planted into one 16-cm pot for each rate. Seeds from the U.S. of barnyardgrass (Echinochloa crus-galli (L.) Beauv.), late watergrass (Echinochloa oryzicola Vasinger), early watergrass (Echinochloa oryzoides (Ard.) Fritsch) and junglerice (Echinochloa colona (L.) Link) were planted into one 16-cm pot for each rate. Plantings were sequential so that crop and weed species were at the 2.0 to 2.5-leaf stage at time of treatment.
(§2) Potted plants were grown in a greenhouse with day/night temperature settings of 29.5/26.7° C., and supplemental balanced lighting was provided to maintain a 16-hour photoperiod. Test pots were maintained in the greenhouse until test completion.
(§3) At time of treatment, test pots were flooded to 3 cm above the soil surface, treated by application of test compounds directly to the paddy water, and then maintained at that water depth for the duration of the test. Effects of treatments on rice and weeds were visually evaluated by comparison to untreated controls after 21 days. Plant response ratings are reported on a 0 to 100 scale; where 0 is no effect and 100 is complete control. A dash (-) response means no test result.

junglerice = test: Test D flooded paddy test; format: in vivo, Echinochloa colona; conditions: 21 days, scale 0 to 100
From the text: as §1, §2, §3

## CCn1nc(C(C)(C)C)cc1C(=O)Nc1cc(C(=O)N(C)C)ccn1 [Compound 156, 2-[[[3-(1,1-dimethylethyl)-1-ethyl-1H-pyrazol-5-yl]carbonyl]amino]-N,N-dimethyl-4-pyridinecarboxamide]
[1]; 62 g a.i./ha
  Response of corn, With 1% naphthalic anhydride seed treatment: 0
  Response of corn, Without naphthalic anhydride seed treatment: 2
[1]; 125 g a.i./ha
  Response of corn, With 1% naphthalic anhydride seed treatment: 0
  Response of corn, Without naphthalic anhydride seed treatment: 30
[1]; 250 g a.i./ha
  Response of corn, With 1% naphthalic anhydride seed treatment: 17
  Response of corn, Without naphthalic anhydride seed treatment: 65
[1]; 500 g a.i./ha
  Response of corn, With 1% naphthalic anhydride seed treatment: 17
  Response of corn, Without naphthalic anhydride seed treatment: 88
Wheat cv. Retical; 62 g a.i./ha
  Response of wheat, With 1% naphthalic anhydride seed treatment: 7
  Response of wheat, Without naphthalic anhydride seed treatment: 67
Wheat cv. Retical; 125 g a.i./ha
  Response of wheat, With 1% naphthalic anhydride seed treatment: 70
  Response of wheat, Without naphthalic anhydride seed treatment: 100
Wheat cv. Retical; 250 g a.i./ha
  Response of wheat, With 1% naphthalic anhydride seed treatment: 85
  Response of wheat, Without naphthalic anhydride seed treatment: 100
Wheat cv. Retical; 500 g a.i./ha
  Response of wheat, With 1% naphthalic anhydride seed treatment: 99
  Response of wheat, Without naphthalic anhydride seed treatment: 100

## CCn1nc(C(C)(C)C)cc1C(=O)Nc1cc(C(=O)NCC2CC2)ccn1 [Compound 155]
Late watergrass; 32 g ai/ha
  Plant response rating, Watergrass, Late: 0
Late watergrass; 64 g ai/ha
  Plant response rating, Watergrass, Late: 0
Late watergrass; 125 g ai/ha
  Plant response rating, Watergrass, Late: 20
Late watergrass; 250 g ai/ha
  Plant response rating, Watergrass, Late: 30
Late watergrass; 500 g ai/ha
  Plant response rating, Watergrass, Late: 60
junglerice; 32 g ai/ha
  Plant response rating, Junglerice: 20
junglerice; 64 g ai/ha
  Plant response rating, Junglerice: 40
junglerice; 125 g ai/ha
  Plant response rating, Junglerice: 40
junglerice; 250 g ai/ha
  Plant response rating, Junglerice: 40
junglerice; 500 g ai/ha
  Plant response rating, Junglerice: 65
